Test results as given in patent publication US12268682B2, “Anticancer drug FL118 formulation for treatment of human cancer” (CANGET BIOTEKPHARMA, LLC, priority 2019, dated 2025).
Where two headings read alike, the source gives them in different places.

Columns and labels:
ABCG2/BCRP = biological target: T1, ABCG2/BCRP (Homo sapiens, UniProt Q9UNQ0); details: cited from earlier work
T1 sequence (Q9UNQ0 1-655): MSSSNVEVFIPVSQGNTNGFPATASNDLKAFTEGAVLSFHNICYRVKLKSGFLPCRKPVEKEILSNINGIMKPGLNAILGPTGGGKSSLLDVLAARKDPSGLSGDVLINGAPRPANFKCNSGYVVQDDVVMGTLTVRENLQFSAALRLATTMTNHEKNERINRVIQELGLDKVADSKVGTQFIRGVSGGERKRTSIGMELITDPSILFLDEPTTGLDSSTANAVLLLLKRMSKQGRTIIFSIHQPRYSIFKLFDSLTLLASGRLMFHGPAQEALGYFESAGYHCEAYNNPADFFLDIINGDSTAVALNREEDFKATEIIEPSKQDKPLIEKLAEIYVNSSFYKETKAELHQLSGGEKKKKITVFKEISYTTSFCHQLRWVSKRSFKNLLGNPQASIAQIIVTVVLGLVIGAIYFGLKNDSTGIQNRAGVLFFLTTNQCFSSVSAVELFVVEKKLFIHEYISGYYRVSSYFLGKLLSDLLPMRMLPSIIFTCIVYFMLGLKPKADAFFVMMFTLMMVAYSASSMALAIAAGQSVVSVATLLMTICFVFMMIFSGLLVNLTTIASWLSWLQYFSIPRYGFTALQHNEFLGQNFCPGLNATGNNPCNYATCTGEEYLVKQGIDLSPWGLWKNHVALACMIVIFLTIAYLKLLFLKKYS

Pgp/MDR1 = Pgp/MDR1 (Homo sapiens, UniProt P08183); details: cited from earlier work
Pgp/MDR1, sequence (P08183 whole entry): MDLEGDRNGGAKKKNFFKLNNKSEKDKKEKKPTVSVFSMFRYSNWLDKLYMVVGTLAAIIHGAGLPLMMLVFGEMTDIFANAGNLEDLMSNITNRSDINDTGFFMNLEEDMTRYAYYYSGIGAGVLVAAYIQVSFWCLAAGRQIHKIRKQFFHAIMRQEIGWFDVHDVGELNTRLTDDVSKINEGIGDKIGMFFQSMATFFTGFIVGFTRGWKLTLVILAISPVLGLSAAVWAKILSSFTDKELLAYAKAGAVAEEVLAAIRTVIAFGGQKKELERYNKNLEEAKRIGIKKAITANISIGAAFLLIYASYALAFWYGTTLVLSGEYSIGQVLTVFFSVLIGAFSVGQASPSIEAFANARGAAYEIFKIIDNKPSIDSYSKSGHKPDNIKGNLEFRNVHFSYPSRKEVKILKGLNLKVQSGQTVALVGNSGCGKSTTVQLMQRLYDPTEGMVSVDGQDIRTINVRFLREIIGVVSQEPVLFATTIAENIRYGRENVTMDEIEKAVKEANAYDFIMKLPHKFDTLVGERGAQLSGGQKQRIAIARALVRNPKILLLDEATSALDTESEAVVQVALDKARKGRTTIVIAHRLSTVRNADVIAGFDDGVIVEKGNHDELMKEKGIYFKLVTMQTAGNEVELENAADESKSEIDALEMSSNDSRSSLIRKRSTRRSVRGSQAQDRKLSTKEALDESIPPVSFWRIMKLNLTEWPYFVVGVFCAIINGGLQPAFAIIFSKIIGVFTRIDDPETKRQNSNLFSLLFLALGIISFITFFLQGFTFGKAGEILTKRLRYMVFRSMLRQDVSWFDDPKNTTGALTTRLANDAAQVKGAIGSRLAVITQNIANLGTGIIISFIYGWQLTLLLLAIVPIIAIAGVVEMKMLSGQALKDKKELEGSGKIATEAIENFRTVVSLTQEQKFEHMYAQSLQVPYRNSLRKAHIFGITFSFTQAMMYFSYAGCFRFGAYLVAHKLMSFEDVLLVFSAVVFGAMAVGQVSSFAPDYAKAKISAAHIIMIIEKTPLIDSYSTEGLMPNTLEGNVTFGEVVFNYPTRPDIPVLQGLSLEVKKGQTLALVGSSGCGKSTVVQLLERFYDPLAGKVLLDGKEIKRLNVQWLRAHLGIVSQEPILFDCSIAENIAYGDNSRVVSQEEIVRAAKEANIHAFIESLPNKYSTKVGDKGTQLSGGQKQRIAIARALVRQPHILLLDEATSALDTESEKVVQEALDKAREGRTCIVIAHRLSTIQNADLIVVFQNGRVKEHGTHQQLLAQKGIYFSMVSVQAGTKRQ

MM cells = details: previously demonstrated; cited from earlier work
MM cell lines = assay: BLI-based cytotoxicity assay using LUC-transduced MM cell lines; set-up: species or system human; details: two MM cell lines, BMMSCs or HS-5
Experimental: Cell lines and culture: Luciferase (LUC)-transduced MM cell lines RPMI 8226, JJN3, UM9, MM1.s, U266, L363, and OPM-2 were cultured in RPMI 1640 (Life Technologies), supplemented with 10% heat-inactivated HyClone FetalClone I serum (GE Healthcare Life Sciences) and (penicillin, 10.000 U/mL; streptomycin, […]; InVitrogen,). HS-5 was cultured in DMEM (Life Technologies), supplemented with heat-inactivated FBS (Sigma) and antibiotics.

In the case of CCc1c2c(nc3ccc(O)cc13)-c1cc3c(c(=O)n1C2)COC(=O)[C@]3(O)CC [SN-38], the “substrate of efflux pump ABCG2/BCRP” value (ABCG2/BCRP; not told) is given as “substrates” and the “substrate of efflux pump Pgp/MDR1” value (Pgp/MDR1; not told) is given as “substrates”.

In the case of COCCn1c2c([n+](Cc3cnccn3)c1C)C(=O)c1ccccc1C2=O [YM155], the “modulation of BMMSC-mediated protection against CTLs and daratumumab-dependent ADCC” value (MM cells) is given as “effective modulation”.

With CC(C)C[C@H](NC(=O)[C@H](Cc1ccccc1)NC(=O)c1cnccn1)B(O)O [bortezomib, reference compound] the “lysis of MM cell lines by the drug upon co-culture with stromal cells” value (MM cell lines) was “significantly inhibited”.

In the case of COc1cccc2c1C(=O)c1c(O)c3c(c(O)c1C2=O)C[C@@](O)(C(=O)CO)C[C@@H]3O[C@H]1C[C@H](N)[C@H](O)[C@H](C)O1 [doxorubicin, reference compound], the “lysis of MM cell lines by the drug upon co-culture with stromal cells” value (MM cell lines) is reported as “significantly inhibited”.

In the case of CCc1c2c(nc3ccc(OC(=O)N4CCC(N5CCCCC5)CC4)cc13)-c1cc3c(c(=O)n1C2)COC(=O)[C@]3(O)CC [irinotecan], the “substrate of efflux pump ABCG2/BCRP” value (ABCG2/BCRP) is given as “substrates” and the “substrate of efflux pump Pgp/MDR1” value (Pgp/MDR1) is given as “substrates”.

In the case of CC[C@@]1(O)C(=O)OCc2c1cc1n(c2=O)Cc2cc3c(CN(C)C)c(O)ccc3nc2-1 [topotecan], the “substrate of efflux pump ABCG2/BCRP” value (ABCG2/BCRP) is listed as “substrates” and the “substrate of efflux pump Pgp/MDR1” value (Pgp/MDR1) is listed as “substrates”.
